Measured values: patent US8163771B2, “11 β-HSD1 modulators” (Exelixis, Inc., priority 2008, dated 2012)
pIC50: −log10 of the molar value.

Biological target: T1, recombinant human 11 β-HSD1 (Homo sapiens, UniProt P28845)
T1 construct: made in house; host or cells: E. coli
Experiment: 11 β-HSD1 SPA Assay (Scintillation Proximity Assay)
Assay type: biochemical
In short: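 E. coli-expressed human enzyme (30-100 nM) with tritiated cortisone 40 nM and NADPH 1 mM in HEPES buffer pH7.4, 2 hours at room temperature. Stopped with protein A SPA beads carrying anti-cortisol antibody and glycyrrhetinic acid; counted after overnight incubation. IC50 from percent inhibition between no-enzyme and no-compound signals.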

T1 sequence (P28845 whole entry): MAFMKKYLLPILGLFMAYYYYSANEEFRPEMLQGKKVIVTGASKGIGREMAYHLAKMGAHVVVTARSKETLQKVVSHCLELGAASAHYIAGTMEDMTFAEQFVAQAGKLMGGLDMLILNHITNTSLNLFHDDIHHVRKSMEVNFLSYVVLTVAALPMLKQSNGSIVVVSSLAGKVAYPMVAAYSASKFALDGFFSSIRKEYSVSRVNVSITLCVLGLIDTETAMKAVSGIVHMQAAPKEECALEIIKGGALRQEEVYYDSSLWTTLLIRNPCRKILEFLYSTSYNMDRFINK

Compound	pIC50
CC(C)(Oc1ncc(Cl)cc1C(F)(F)F)C(=O)N[C@H]1C[C@H]2CC[C@@H](C1)N2c1ccc(S(C)(=O)=O)cc1 [Example 325, 2-{[5-chloro-3-(trifluoromethyl)pyridin-2-yl]oxy}-2-methyl-N-{8-[4-(methylsulfonyl)phenyl]-8-azabicyclo[3.2.1]oct-3-endo-yl}propanamide]	> 6.70
CC(C)(Oc1ccc(F)cc1S(C)(=O)=O)C(=O)N[C@H]1C[C@H]2CC[C@@H](C1)N2c1ccc(S(N)(=O)=O)cn1 [Example 298, N-{8-[5-(aminosulfonyl)pyridin-2-yl]-8-azabicyclo[3.2.1]oct-3-endo-yl}-2-{[4-fluoro-2-(methylsulfonyl)phenyl]oxy}-2-methylpropanamide]	> 5.70
CC(C)(Oc1ccc(Cl)cc1Cl)C(=O)NC1CC2CCC(C1)N2c1ccc(C(=O)N2CC[C@@H](O)C2)cn1 (stereo partly drawn) [Example 461, 2-(2,4-dichlorophenoxy)-n-[8-(5-{[(3r)-3-hydroxypyrrolidin-1-yl]carbonyl}pyridin-2-yl)-8-azabicyclo[3.2.1]oct-3-endo-yl]-2-methylpropanamide]	> 6.70
CC(C)(Oc1ccc(F)c(F)c1)C(=O)N[C@H]1C[C@H]2CC[C@@H](C1)N2c1ccc(C(=O)NC2CC2)cn1 [Example 33, N-cyclopropyl-6-[3-endo-({2-[(3,4-difluorophenyl)oxy]-2-methylpropanoyl}amino)-8-azabicyclo[3.2.1]oct-8-yl]pyridine-3-carboxamide]	> 6.70
CC(C)(Oc1ccc(Cl)cc1Cl)C(=O)N[C@H]1C[C@H]2CC[C@@H](C1)N2c1ccc(C(=O)NCC(F)(F)C(F)(F)F)cn1 [Example 126, 6-[3-endo-({2-[(2,4-dichlorophenyl)oxy]-2-methylpropanoyl}amino)-8-azabicyclo[3.2.1]oct-8-yl]-N-(2,2,3,3,3-pentafluoropropyl)pyridine-3-carboxamide]	> 6.70
CC(C)(Oc1cc(Cl)c(F)cc1Cl)C(=O)N[C@H]1C[C@H]2CC[C@@H](C1)N2c1ccc(S(N)(=O)=O)cn1 [Example 157, N-{8-[5-(aminosulfonyl)pyridin-2-yl]-8-azabicyclo[3.2.1]oct-3-endo-yl}-2-[(2,5-dichloro-4-fluorophenyl)oxy]-2-methylpropanamide]	> 6.70
CC(C)(Oc1ccc(Cl)cc1Cl)C(=O)N[C@H]1C[C@H]2CC[C@@H](C1)N2c1ncc(C(=O)NCC(F)(F)F)cc1F [Example 160, 6-[3-endo-({2-[(2,4-dichlorophenyl)oxy]-2-methylpropanoyl}amino)-8-azabicyclo[3.2.1]oct-8-yl]-5-fluoro-N-(2,2,2-trifluoroethyl)pyridine-3-carboxamide]	> 6.70
CC(C)(O)CNC(=O)c1ccc(N2[C@@H]3CC[C@H]2C[C@@H](NC(=O)C(C)(C)Oc2ccc(Cl)cc2OC(F)(F)F)C3)nc1 [Example 438, 6-[3-endo-({2-[4-chloro-2-(trifluoromethoxy)phenoxy]-2-methylpropanoyl}amino)-8-azabicyclo[3.2.1]oct-8-yl]-N-(2-hydroxy-2-methylpropyl)pyridine-3-carboxamide]	> 6.70
CC(C)(Oc1cc(F)c(F)cc1F)C(=O)N[C@H]1C[C@H]2CC[C@@H](C1)N2c1ccc(S(C)(=O)=O)cc1 [Example 234, 2-methyl-N-{8-[4-(methylsulfonyl)phenyl]-8-azabicyclo[3.2.1]oct-3-endo-yl}-2-[(2,4,5-trifluorophenyl)oxy]propanamide]	> 5.70
NC(=O)c1ccc(N2[C@@H]3CC[C@H]2C[C@@H](NC(=O)C2(c4cccc(Cl)c4)CC2)C3)nc1 [Example 102, 6-[3-endo-({[1-(3-chlorophenyl)cyclopropyl]carbonyl}amino)-8-azabicyclo[3.2.1]oct-8-yl]pyridine-3-carboxamide]	> 6.70
CC(C)(Oc1ccc(Cl)cc1Cl)C(=O)N[C@H]1C[C@H]2CC[C@@H](C1)N2c1ccc(C(=O)NCCO)cn1 [Example 367, 6-(3-endo-{[2-(2,4-dichlorophenoxy)-2-methylpropanoyl]amino}-8-azabicyclo[3.2.1]oct-8-yl)-N-(2-hydroxyethyl)pyridine-3-carboxamide]	> 6.70
C[C@H](NC(=O)c1ccc(N2C3CCC2CC(NC(=O)C(C)(C)Oc2ccc(F)c(Cl)c2Cl)C3)nc1)C(F)(F)F (stereo partly drawn) [Example 437, 6-(3-endo-{[2-(2,3-dichloro-4-fluorophenoxy)-2-methylpropanoyl]amino}-8-azabicyclo[3.2.1]oct-8-yl)-N-[(2S)-1,1,1-trifluoropropan-2-yl]pyridine-3-carboxamide]	> 6.70
CC(C)(Oc1ccc(C(C)(C)O)cc1Cl)C(=O)N[C@H]1C[C@H]2CC[C@@H](C1)N2c1ccc(C(=O)NCC(F)(F)F)cn1 [Example 391, 6-[3-endo-({2-[2-chloro-4-(2-hydroxypropan-2-yl)phenoxy]-2-methylpropanoyl}amino)-8-azabicyclo[3.2.1]oct-8-yl]-N-(2,2,2-trifluoroethyl)pyridine-3-carboxamide]	> 6.70
CS(=O)(=O)c1cccc(C2(C(=O)N[C@H]3C[C@H]4CC[C@@H](C3)N4c3ccc(S(N)(=O)=O)cn3)CC2)c1 [Example 313, N-{8-[5-(aminosulfonyl)pyridin-2-yl]-8-azabicyclo[3.2.1]oct-3-endo-yl}-1-[3-(methylsulfonyl)phenyl]cyclo-propanecarboxamide]	> 5.70
CC(C)(Oc1ccc(Cl)cc1OC(F)(F)F)C(=O)N[C@H]1C[C@H]2CC[C@@H](C1)N2c1ccc(C(=O)NC2(CO)CC2)cn1 [Example 427, 6-[3-endo-({2-[4-chloro-2-(trifluoromethoxy)phenoxy]-2-methylpropanoyl}amino)-8-azabicyclo[3.2.1]oct-8-yl]-N-[1-(hydroxymethyl)cyclopropyl] pyridine-3-carboxamide]	> 6.70
CC(C)(Oc1ccc(Cl)cc1C(C)(C)O)C(=O)N[C@H]1C[C@H]2CC[C@@H](C1)N2c1ccc(C(=O)NCC(F)F)cn1 [Example 465, 6-[3-endo-({2-[4-chloro-2-(2-hydroxypropan-2-yl)phenoxy]-2-methylpropanoyl}amino)-8-azabicyclo[3.2.1]oct-8-yl]-N-(2,2-difluoroethyl)pyridine-3-carboxamide]	> 6.70
CC(C)(Oc1cc(OCCN2CCCC2)c(Cl)cc1Cl)C(=O)N[C@H]1C[C@H]2CC[C@@H](C1)N2c1ccc(C(=O)NCC(F)(F)F)cn1 [Example 405, 6-(3-endo-(2-(2,4-dichloro-5-(2-(pyrrolidin-1-yl)ethoxy)phenoxy)-2-methylpropanamido)-8-azabicyclo[3.2.1]octan-8-yl)-N-(2,2,2-trifluoroethyl)nicotinamide]	> 6.70
CC(C)(Oc1ccc(F)cc1F)C(=O)N[C@H]1C[C@H]2CC[C@@H](C1)N2c1ccc(S(C)(=O)=O)cc1 [Example 224, 2-[(2,4-difluorophenyl)oxy]-2-methyl-N-{8-[4-(methylsulfonyl)phenyl]-8-azabicyclo[3.2.1]oct-3-endo-yl}propanamide]	> 6.70
CC(C)(Oc1ccc(C(F)(F)F)cc1)C(=O)N[C@H]1C[C@H]2CC[C@@H](C1)N2c1ccc(C(N)=O)cn1 [Example 172, 6-{3-endo-[(2-methyl-2-{[4-(trifluoromethyl)phenyl]oxy}propanoyl)amino]-8-azabicyclo[3.2.1]oct-8-yl}pyridine-3-carboxamide]	> 6.70
CC(C)(Oc1ccc(F)c(Cl)c1Cl)C(=O)N[C@H]1C[C@H]2CC[C@@H](C1)N2c1ccc(C(=O)NCC(F)F)cn1 [Example 441, 6-(3-endo-{[2-(2,3-dichloro-4-fluorophenoxy)-2-methylpropanoyl]amino}-8-azabicyclo[3.2.1]oct-8-yl)-N-(2,2-difluoroethyl)pyridine-3-carboxamide]	> 6.70
CC(C)(Oc1ccc(F)c(C(F)(F)F)c1)C(=O)N[C@H]1C[C@H]2CC[C@@H](C1)N2c1ccc(S(C)(=O)=O)cn1 [Example 272, 2-{[4-fluoro-3-(trifluoromethyl)phenyl]oxy}-2-methyl-N-{8-[5-(methylsulfonyl)pyridin-2-yl]-8-azabicyclo[3.2.1]oct-3-endo-yl}propanamide]	> 5.70
O=C(NCC(F)(F)F)c1ccc(N2[C@@H]3CC[C@H]2C[C@@H](NC(=O)C2(c4ccc(Cl)cc4)CC2)C3)nc1 [Example 22, 6-[3-endo-({[1-(4-chlorophenyl)cyclopropyl]carbonyl}amino)-8-azabicyclo[3.2.1]oct-8-yl]-N-(2,2,2-trifluoroethyl)pyridine-3-carboxamide]	> 6.70
CC(C)(Oc1ccc(F)cc1)C(=O)N[C@H]1C[C@H]2CC[C@@H](C1)N2c1ccc(S(N)(=O)=O)cn1 [Example 264, N-{8-[5-(aminosulfonyl)pyridin-2-yl]-8-azabicyclo[3.2.1]oct-3-endo-yl}-2-[(4-fluorophenyl)oxy]-2-methylpropanamide]	> 6.70
CC(C)(Oc1cc(C(C)(C)C(=O)O)c(Cl)cc1Cl)C(=O)N[C@H]1C[C@H]2CC[C@@H](C1)N2c1ccc(C(=O)NCC(F)(F)F)cn1 [Example 445, 2-[2,4-dichloro-5-({2-methyl-1-oxo-1-[(8-{5-[(2,2,2-trifluoroethyl)carbamoyl]pyridin-2-yl}-8-azabicyclo[3.2.1]oct-3-endo-yl)amino]propan-2-yl}oxy)phenyl]-2-methylpropanoic acid]	> 6.70
CC(C)(Oc1ccc(F)cc1C(F)(F)F)C(=O)N[C@H]1C[C@H]2CC[C@@H](C1)N2c1ccc(S(C)(=O)=O)nc1 [Example 288, 2-{[4-fluoro-2-(trifluoromethyl)phenyl]oxy}-2-methyl-N-{8-[6-(methylsulfonyl)pyridin-3-yl]-8-azabicyclo[3.2.1]oct-3-endo-yl}propanamide]	> 5.70
C[C@H](NC(=O)c1ccc(N2C3CCC2CC(NC(=O)C(C)(C)Oc2ccc(Cl)cc2Cl)C3)nc1)C(F)(F)F (stereo partly drawn) [Example 374, 6-(3-endo-{[2-(2,4-dichlorophenoxy)-2-methylpropanoyl]amino}-8-azabicyclo[3.2.1]oct-8-yl)-N-[(2S)-1,1,1-trifluoropropan-2-yl]pyridine-3-carboxamide]	> 6.70
